In patent US8486947B2, “Treatment of Parkinson's disease, obstructive sleep apnea, dementia with Lewy bodies, vascular dementia with non-imidazole alkylamines histamine H3-receptor ligands” (Bioprojet, priority 2005, dated 2013):

Assays:
[1] = system: MPTP-treated cats (experimentally induced parkinsonism); assay: Sleep-wakefulness patterns by electromyographic and EEG recordings in MPTP-treated parkinsonian cats; type: in vivo, cat; conditions: oral dose of 10 mg/kg
Experimental: As assessed by electromyographic and EEG recordings, treatment with BF 2.-649 (3-(4-Chlorophenyl)propyl 3-piperidinopropyl ether), a potent and selective H3-antagonist, at an oral dose of 10 mg/kg, normalized these sleep-wakefulness patterns.

[2] = system: patients with a diagnostic of OSA; assay: Single-blind trial against placebo in male patients with obstructive sleep apnea, 3-day treatment; type: in vivo, human; conditions: 40 mg oral once a day, 3 days
Experimental: In a group of 10 male patients with a diagnostic of OSA, confirmed by polysomnography performed during a night in an hospital setting, an Epswoth score above 12 and a body mass index of less than 35, the effect of a 3-day treatment with BF 2.649 (3-(4-Chlorophenyl)propyl 3-piperidinopropyl ether) was assessed in a single-blind trial against placebo, at a fixed oral dose of 40 mg once a day.
In addition the nocturnal sleep duration was not decreased and its quality was improved. This clinical trial establishes for the first time the utility of H3 antagonists/inverse agonists in OSA.

[3] = system: acetylcholine concentration in brain; assay: Rat brain microdialysis of acetylcholine, combination with acetylcholinesterase inhibitors; type: in vivo; conditions: rats, co-administered with donepezil, rivastigmine or gallanthamine
Experimental: (§1) Generally, dementia with Lewi bodies is treated with acetylcholinesterase inhibitors such as donepezil, rivastigmine or gallanthamine. These agents increase the acetylcholine concentration in the is brain extracellular space. Combinations of a compound of the invention and one of these agents were tested on rats. The drug was selected from donepezil, rivastigmine or gallanthamine and administered in combination with 3-(4-Chlorophenyl)propyl 3-piperidinopropyl ether in rats.

[4] = system: rats; assay: Tolerability of the combinations with acetylcholinesterase inhibitors in rats; type: in vivo, rat; conditions: combination with donepezil, rivastigmine or gallanthamine
Experimental: as §1

[5] = system: rats suffering from Parkinson; assay: Combination with an anti-parkinson drug in rats; type: in vivo, rat
Experimental: (§2) Combinations of a compound of the invention and a anti-parkinson drug were tested on rats and humans suffering from Parkinson.

[6] = system: humans suffering from Parkinson; assay: Combination with an anti-parkinson drug in humans suffering from Parkinson; type: in vivo, human; conditions: 40 mg p.o.
Experimental: as §2

[7] = system: patients suffering from obstructive sleep apnea (OSA); assay: Two clinical studies (single-blinded or double-blinded against placebo, polysomnographical test) in OSA patients; type: in vivo, human; conditions: 40 mg p.o. once a day during 3 and 7 days
Experimental: Two clinical studies were conducted on patients suffering from obstructive sleep apnea (OSA), in a single-blinded or double-blinded trial against placebo with a polysomnographical test on patients.
In both studies, patients were administered with 3-(4-Chlorophenyl)propyl 3-piperidinopropyl ether at 40 mg p.o. once a day during 3 and 7 days.
In both studies, daytime sleepiness was improved in accordance with the Epworth test or according to the frequency of naps or daytime sleepiness occurrences. The average daytime sleepiness could be reduced by up to 50%.

[8] = system: histamine H3-receptor; conditions: literature reports; cited from earlier work
[9] = system: PD patients; conditions: cited from earlier work
[10] = system: Parkinsonian rat (unilateral 6-hydroxydopamine); conditions: 6-hydroxydopamine rat, co-administered with levodopa; cited from earlier work
[11] = combination with anti-parkinson drug
[12] = combination with ropinirole, lisuride, bromocriptine, levodopa or pramiprexole

Clc1ccc(CCCOCCCN2CCCCC2)cc1 [BF 2.649, 3-(4-Chlorophenyl)propyl 3-piperidinopropyl ether]
long periods of sleep (model of excessive daytime sleepiness) [1]: largely suppressed
sleep-wakefulness patterns ([1]; EMG and EEG recordings): normalized
nocturnal sleep duration [2]: not decreased
nocturnal sleep quality [2]: improved
occurrence of diurnal sleep episodes [2]: total prevention
decrease in the number of diurnal somnolence episodes ([2]; all subjects): more than 60%
increase of the acetylcholine concentration in brain (microdialysis) [3]: potentialised
tolerability, in particular cardiovascular parameters [4]: well tolerated
dose of the anti-parkinson drug needed [5, 11]: allowed lower doses
motor symptoms [5, 12]: significantly improved
dose of the anti-parkinson drug needed [6, 11]: allowed lower doses
motor symptoms [6, 12]: significantly improved
daytime sleepiness (Epworth test, frequency of naps or daytime sleepiness occurrences) [7]: improved
reduction of average daytime sleepiness [7]: up to 50%

CNCCc1ccccn1 [betahistine]
H3-receptor antagonism potency [8]: very low potency

CN(C)CCCSC(=N)N [dimaprit]
H3-receptor antagonism potency [8]: very low potency

NC(=O)C[S+]([O-])C(c1ccccc1)c1ccccc1 (stereo not shown) [modafinil]
treatment of excessive daytime sleepiness [9]: limited success

c1ccc(C2(N3CCCCC3)CCCCC2)cc1 [phencyclidine]
H3-receptor antagonism potency [8]: very low potency

S=C(NC1CCCCC1)N1CCC(c2cnc[nH]2)CC1 [thioperamide]
effect of levodopa on turning behaviour upon co-administration [10]: not modified
